{
  "source": "patent US20150265642A1",
  "about": "“NAD BIOSYNTHESIS AND PRECURSORS IN THE PREVENTION AND TREATMENT OF INFLAMMATION” (PRESIDENT AND FELLOWS OF HARVARD COLLEGE, priority 2013, published 2015)",
  "key": {"HIF-1α": {"test_system": "HIF-1α", "test": "Immunoblot for HIF-1α in gastrocnemius of NMN-treated mice", "type": "in vivo", "experimental": "(§1) C57BL/6J mice of 3, 6, 22, 24, or 30 months of age were obtained from the National Institutes of Aging mouse aging colony. Mice were acclimated for at least one-week prior to sacrifice. 3, and 24-month-old mice were given interperitoneal (IP) injections of 500 mg NMN/kg body weight per day or the equivalent volume of PBS for 7 consecutive days at 5:00 pm and 7:00 am on day 8 and sacrificed 4 hr after last injection. All animal studies followed the guidelines of and were approved by the Harvard Institutional Animal Care and Use Committee\nC57BL/6J mice of 6, 22, or 30 months of age were obtained from the National Institutes of Aging mouse aging colony. Additionally 22 months old caloric restricted mice were also obtained from the National Institutes of Aging mouse aging colony. […]\nProtein extracts from tissue or C2C12 cells were obtained by lysis in ice-cold lysis buffer (150 mM NaCl, 10 mM Tris HCl (pH 7.4), 1 mM EDTA, 1 mM EGTA, 1% Triton X-100, 0.5% NP-40) supplemented with a cocktail of protease and phosphatase inhibitors (Roche). Protein content was determined by the Bradford protein assay (Biorad), and 50 μg proteins were run on SDS-PAGE under reducing conditions. […] The immunostaining was detected using horseradish peroxidase-conjugated anti-rabbit or anti-mouse immunoglobulin for 1 h at room temperature. […]"}, "VHL": {"test_system": "VHL", "test": "Immunoblot for VHL in gastrocnemius of NMN-treated mice", "type": "in vivo", "conditions": "22-month-old mice, NMN one week", "from_the_text": "(§2) C57BL/6J mice of 6, 22, or 30 months of age were obtained from the National Institutes of Aging mouse aging colony. Additionally 22 months old caloric restricted mice were also obtained from the National Institutes of Aging mouse aging colony. EGLN1 KO, SIRT1 KO and SIRT1 OE mice were generated as previously described (Minamishima et al., 2008; Price et al., 2012). Mice were acclimated for at least one-week prior to sacrifice. 3, 6, 22 and 24-month-old mice were given interperitoneal (IP) injections of 500 mg NMN/kg body weight per day or the equivalent volume of PBS for 7 consecutive days at 5:00 pm and 7:00 am on day 8 and sacrificed 4 hr after last injection.\n(§3) Protein extracts from tissue or C2C12 cells were obtained by lysis in ice-cold lysis buffer (150 mM NaCl, 10 mM Tris HCl (pH 7.4), 1 mM EDTA, 1 mM EGTA, 1% Triton X-100, 0.5% NP-40) supplemented with a cocktail of protease and phosphatase inhibitors (Roche). Protein content was determined by the Bradford protein assay (Biorad), and 50 μg proteins were run on SDS-PAGE under reducing conditions. The separated proteins were then electrophoretically transferred to a polyvinylidene difluoride membrane (Perkin-Elmer). […] The immunostaining was detected using horseradish peroxidase-conjugated anti-rabbit or anti-mouse immunoglobulin for 1 h at room temperature."}, "AKT and IRS-1": {"test_system": "AKT and IRS-1", "test": "Insulin signaling (phosphorylation of AKT and IRS-1) in skeletal muscle", "type": "in vivo", "conditions": "soleus of old mice treated with NMN", "from_the_text": "as §2, §3"}, "PGC-1α/β KO myotubes": {"test_system": "PGC-1α/β KO myotubes", "test": "Gene expression (qPCR) and HIF-1α immunoblot in PGC-1α/β KO myotubes", "type": "cell-based, mice", "design": "expression of mitochondrially-encoded ETC genes (ND1, CYTB, COX1, ATP6): dose or concentration left out as unconfirmed", "conditions": "primary PGC-1α/β KO myotubes incubated with NMN (12 h)", "experimental": "Primary myoblasts cells were isolated from WT, SIRT1 KO (Price et al., 2012) and PGC-1α/β KO (Zechner et al., 2010) mice as previously described (Price et al., 2012). WT and PGC-1α/β KO primary myoblasts were plated and allowed to differentiate into myotubes by replacing the media with low glucose DMEM supplemented with 2% horse serum (Sigma-Aldrich) for 4 days. After the differentiation the cells were infected with empty vector or flag-SIRT1 adenovirus as described before (Gerhart-Hines et al., 2007). Media was replaced with fresh DMEM supplemented with 2% horse serum (Sigma-Aldrich) for an additional 48 hr and, after that the cells were harvested for the different assays as described. To investigate the role of HIF-1α in genome asynchrony, PGC-1α/β KO primary myotubes were treated for 12 hours with 1 mM DMOG (Sigma) or 10 μM DFO (Sigma), 24 h after infection with empty vector of flag-SIRT1 adenovirus or after 12 h treatment with […] NMN (Sigma).\n(§4) RNA from skeletal muscle tissue and C2C12 cells were extracted with RNeasy mini kit (Qiagen) according to the instructions and quantified using the NanoDrop 1000 spectrophotometer (Thermo Scientific). cDNA was synthesized with the iSCRIP cDNA synthesis kit (BioRad) using 600 ng of RNA. Quantitative RT-PCR reactions were performed using 1 μM of primers and LightCycler® 480 SYBR Green Master (Roche) on an LightCycler® 480 detection system (Roche). Calculations were performed by a comparative method (2-ΔCT) using 18S as an internal control. For mtDNA analysis, total DNA was extracted with DNeasy blood and tissue kit (Qiagen). mtDNA was amplified using primers specific for the mitochondrial cytochrome c oxidase subunit 2 (COX2) gene and normalized to genomic DNA by amplification of the ribosomal protein s18 (rps18) nuclear gene. Primers were designed using the IDT software (IDT) and the primer sequences can be found in Table 1.\nas §3"}, "[1]": {"test_system": "HIF-1α target genes (PGK-1, Glut1, PKD1, VEGFa)", "test": "qPCR of HIF-1α target genes in gastrocnemius of NMN-treated mice", "type": "in vivo", "conditions": "24-month-old mice; NMN 500 mg/kg IP, one week", "experimental": "as §1\nas §4, with “Primers were designed using the IDT software (IDT) and the primer sequences can be found in Table 1.” left out"}},
  "note": "Entries after “also recorded” stand apart in the source; their conditions may differ.",
  "data": [
    {"compound": "NC(=O)c1ccc[n+]([C@@H]2O[C@H](COP(=O)([O-])O)[C@@H](O)[C@H]2O)c1", "note": "[NMN, nicotinamide mononucleotide]", "values": [
      {"measurement": "HIF-1α protein", "setting": "HIF-1α; 22-month-old mice, gastrocnemius, NMN IP 500 mg/kg/day, 7 days, 500 mg/kg/day", "value": "reversed the age-induced decline in VHL and consequent accumulation of HIF-1α; also recorded: destabilizes HIF-1alpha in the skeletal muscle of old animals"},
      {"measurement": "HIF-1α in muscle", "setting": "HIF-1α; 24-month-old mice, NMN 500 mg/kg IP, one week", "value": "reversed the age-induced increase in HIF-1α in muscle"},
      {"measurement": "VHL protein", "setting": "VHL", "value": "reversed the age-induced decline in VHL"},
      {"measurement": "insulin signaling (phosphorylation of AKT and IRS-1)", "setting": "AKT and IRS-1", "value": "restore insulin signaling"},
      {"measurement": "expression of mitochondrially-encoded ETC genes (ND1, CYTB, COX1, ATP6)", "setting": "PGC-1α/β KO myotubes", "value": "induced expression of mitochondrially-encoded ETC genes"},
      {"measurement": "expression of HIF-1α target genes", "setting": "[1]", "value": "suppressed the expression of HIF-1α target genes"}
    ]}
  ]
}
